In patent US5504097A, “N-hydroxyureas as 5-lipoxygenase inhibitors and inhibitors of oxidative modification of low density lipoprotein” (American Home Products Corporation, priority 1995, dated 1996) one finds inhibition and inhibition in vivo data, which are given here for 4 compounds.

As a reminder, the inhibition is the percentage by which the read-out fell short of the control. In general, inhibition in vivo refers to how much of the control response was suppressed. A lower inhibition in vivo goes with a response near the control.

SMILES strings stand for the structures.

One assay has as its target T1, 5-Lipoxygenase (Homo sapiens, UniProt P09917).
T1 construct: from tissue; host or cells: whole blood of male human donors (endogenous enzyme of the leukocytes)
T1 sequence (P09917 1-674): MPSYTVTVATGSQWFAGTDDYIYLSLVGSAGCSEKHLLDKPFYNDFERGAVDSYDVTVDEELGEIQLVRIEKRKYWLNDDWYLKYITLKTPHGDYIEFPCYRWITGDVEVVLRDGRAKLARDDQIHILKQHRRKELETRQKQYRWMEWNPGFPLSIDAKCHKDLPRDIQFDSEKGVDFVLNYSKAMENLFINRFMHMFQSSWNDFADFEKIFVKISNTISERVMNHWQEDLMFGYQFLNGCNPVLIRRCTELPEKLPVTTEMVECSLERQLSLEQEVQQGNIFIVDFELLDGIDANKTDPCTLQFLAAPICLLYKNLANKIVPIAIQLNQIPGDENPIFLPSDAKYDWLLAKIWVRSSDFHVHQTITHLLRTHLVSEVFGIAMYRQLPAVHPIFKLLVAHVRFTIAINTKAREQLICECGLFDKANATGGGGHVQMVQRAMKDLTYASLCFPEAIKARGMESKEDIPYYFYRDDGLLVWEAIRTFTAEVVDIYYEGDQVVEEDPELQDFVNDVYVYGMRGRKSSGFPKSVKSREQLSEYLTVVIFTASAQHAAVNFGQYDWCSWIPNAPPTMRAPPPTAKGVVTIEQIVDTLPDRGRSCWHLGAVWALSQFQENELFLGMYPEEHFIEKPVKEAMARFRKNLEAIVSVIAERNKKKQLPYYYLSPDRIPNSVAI
Description: Inhibition of 5-Lipoxygenase in Human Whole Blood (LTB4, calcium ionophore A23187). The settings on record: 1 μM. In kind it is cell-based. On the procedure:
1. Inhibition of 5-Lipoxygenase in Human Whole Blood
Blood is obtained in 50-100 ml quantities from male donors. White blood cell counts and differentials are made. Two ml of blood are placed in a 15 ml polypropylene test tube. Test compounds are solubilized in dimethylsulfoxide and diluted in 1:10 in 10% bovine serum albumin in phosphate buffered saline, pH 7.4 resulting in a final dimethylsulfoxide concentration of 0.1% in the blood. Then, solutions of test compounds are added to the blood in a shaking water bath at 37° C. for 10 minutes prior to the addition of 30 μM calcium ionophore (A23187, Sigma). After ionophore administration, whole blood samples are mixed and incubated for 20 minutes at 37° C. in a shaking water bath. Incubation is terminated by placing samples in an ice bath and immediately adding ethylene glycol-bis-(β-aminoethyl ether)-N, N,N',N'-tetraacetic acid (10 mM). Samples are mixed and centrifuged at 1200× g for 15 minutes at 4° C. Preparation of samples for evaluation by RIA or ELISA is carried out by the following protocol. Plasma is removed from sample tubes, placed in 15 ml polypropylene test tubes containing 8 ml methanol, and then vortexed to precipitate protein. Samples are stored at -70° C. overnight. The next day, samples are centrifuged at 200× g for 15 minutes at 4° C. to pellet the precipitate. Samples are dried in a Savant SpeedVac Concentrator, Model SVC 200H, reconstituted to original volume with ice cold RIA or ELISA buffer, and stored at -70° C. until assayed. The assay for eicosanoids (LTB4, T×B2, and PGE2) is performed as described by the manufacturer of the ^3 H!-RIA kit or ELISA kit (LTB4 -Amersham, T×B2 and PGE2 -Caymen Chemical).
The total eicosanoid level in 2 ml of blood is calculated and reported as ng/10^6 neutrophils. Significance is determined by a one-way analysis of variance with least significant difference (LSD) comparisons to control (p≤0.05) and IC50 's (μM) are determined by regression analysis (Finney, 1978). Drug effects are expressed as percent change from control values.

The subject of assay [1] is LT-dependent bronchoconstriction. In words: Inhibition of Bronchoconstriction in Guinea Pigs Induced by Exogenously Administered Antigen (ovalbumin). In kind it is in vivo, Male guinea pigs. The conditions noted are these: Cavia porcellus, 5 min; for inhibition in vivo at 10 mg/kg: iv. On the procedure: 4. Inhibition of Brochoconstriction in Guinea Pigs Induced by Exogenously Administered Antigen
Male guinea pigs (Charles River, Wilmington, Mass.) were sensitized 3-4 weeks prior to antigen challenge by administration of 2 i.m. injections of ovalbumin, 1 into each hind limb (35 mg total). Sensitized animals (500-600 g) were fasted overnight prior to experimentation. Conscious animals were then dosed p.o. with drug or vehicle alone (0.5% Tween 80 in H2 O) at the indicated times prior to antigen challenge, or anesthetized animals were dosed i.v. with drug or vehicle alone (DMSO) 5 min prior to antigen challenge. Animals were anesthetized by urethane (2.8 g/kg i.p.). A carotid artery and jugular vein were cannulated to allow for the monitoring of blood pressure and the administration of drugs, respectively. The trachea was then cannulated and connected to a Harvard Apparatus rodent ventilator (S. Natick, Mass). Spontaneous respiration was abolished by the administration of succinylcholine (2.5 mg/kg i.v.). The animals were then ventilated with room air at a rate of 65 breaths per min. Airway inflation pressure was measured using a Statham pressure transducer (Gould Instruments, Cleveland, Ohio) connected to the tracheal cannula via a side-arm and recorded on a Grass Instruments recorder (Quincy, Mass). The tidal volume (approximately 10 cc/kg) was adjusted to give a baseline inflation pressure of 8-10 cm H2 O at end inspiration. Animals were then allowed 20 min to stabilize.
Following the stabilization period, animals were given i.v. injections of pyrilamine (5 mg/kg), propranolol (0.1 mg/kg) and indomethacin (10 mg/kg) at 15, 10 and 5 min, respectively, prior to antigen challenge. This pretreatment results in an LT-dependent bronchoconstriction following antigen challenge, which was accomplished by i.v. administration of ovalbumin (10 mg/kg). Only one bronchoconstriction per animal was induced. End-inspiratory inflation pressure (in cm H2 O over baseline) was measured at 5 min post-antigen challenge. A mean value and standard error for the % inhibition of control bronchoconstriction in each drug-treated group was then calculated.

Regarding `Cc1oc(-c2ccccc2)nc1COc1ccc(CN(O)C(N)=O)cc1` [Example 1, 1-Hydroxy-1-4-(5-methyl-2-phenyl-oxazol-4-ylmethoxy)-benzyl!-urea], the inhibition at 1 µM at 5-Lipoxygenase is 50%. In assay [1], 10 mg/kg produced 38% inhibition in vivo.

With `Cc1oc(-c2ccc(C(F)(F)F)cc2)nc1COc1ccc(CN(O)C(N)=O)cc1` [Example 6, 1-Hydroxy-1-4-5-methyl-2-(4-trifluoromethyl-phenyl)-oxazol-4-ylmethoxy!-benzyl!-urea], on 5-Lipoxygenase, the inhibition at 1 µM was found to be 34%. Besides, in assay [1], at 10 mg/kg the inhibition in vivo was 27%. Moreover, 25 mg/kg produced 27% inhibition in vivo in assay [1] (po).

`NC(=O)N(O)Cc1ccc(OCc2coc(-c3ccccc3)n2)cc1` [Example 9, 1-Hydroxy-1-4-(2-phenyl-oxazol-4-ylmethoxy)-benzyl!-urea]: at 5-Lipoxygenase, the inhibition at 1 µM turned out to be 58%. The inhibition in vivo at 10 mg/kg in assay [1] amounted to 54%. In assay [1] (po, 50 mg/kg), the inhibition in vivo at 50 mg/kg was 44%.

With `NC(=O)N(O)Cc1ccc(OCc2csc(-c3ccccc3)n2)cc1` [Example 10, 1-Hydroxy-1-4-(2-phenyl-thiazol-4-ylmethoxy)-benzyl!-urea], the inhibition at 1 µM on 5-Lipoxygenase amounted to 44%. In assay [1], this compound gave an inhibition in vivo at 10 mg/kg of 50%. The compound also had an inhibition in vivo at 25 mg/kg in assay [1] (po) of 24%.
